Experimental data reported in patent publication US12060408B2, “Screening assays, modulators and modulation of activation of Receptor for Advanced Glycation End-products (RAGE)” (Monash University, priority 2017, dated 2024).

How the values were obtained:
IQGAP-1 = target: T1, IQGAP-1 (Cricetulus griseus, UniProt A0A8C2MPD4); assay: Pull down from cytosolic components on a column coated with S391A-RAGE362-404; assay type: binding; settings: column coated with the peptide
T1 construct: 5×10^7 CHO cells stably transfected with Hs-AT1R were lysed using RIPA buffer; endogenous in cells; host or cells: lysate of CHO cells stably transfected with Hs-AT1R
From the text: FIG. 11C. Pull down of a protein identified as IQGAP-1 from other cytosolic components using a column coated with the mutant RAGE cytosolic tail (S391A-RAGE362-404), as well as IQGAP-1 associated proteins, ezrin/radixin/moesin and the GPCR olfactory receptor 2T2.

apoE KO mice [1] = assay: Aortic expression of pro-inflammatory mediators by quantitative real-time PCR (aortic homogenates); assay type: in vivo, mouse; settings: four-week infusion 1 μg/kg/min
Method: Aortic Expression of Pro-Inflammatory Mediators by Quantitative Real-Time PCR
(§1) At the end of each study period, thoracic and abdominal aortae were placed in TRIZOL, snap frozen and stored at −80° C. RNA extraction and cDNA synthesis was performed in aortic homogenates using the Trizol method. Gene expression of pro-atherogenic mediators including adhesion molecules, cytokines, inflammatory, oxidative stress and macrophage markers, were estimated in aortic homogenates by quantitative real-time RT-PCR, performed using the TaqMan system based on real-time detection of accumulated fluorescence (ABI Prism 7700, Perkin-Elmer Inc, PE Biosystems, Foster City, CA, USA). Gene expression was normalized to 18S mRNA and reported as fold change compared to the level of expression in untreated control mice/cells, which were given an arbitrary value of 1.

[2] = Systolic BP measurement by tail-cuff plethysmography; assay type: in vivo, mouse; settings: four-week infusion 1 μg/kg/min, both apoE KO and AGER/apoE DKO mice
Method: Systolic blood pressure was measured by tail-cuff plethysmography in conscious, pre-warmed mice using a computerized, non-invasive, tail-cuff system (Kent Scientific, USA). Animals were habituated to the device before measuring the pressures to ensure accurate measurements.

apoE KO mice [3] = assay: Aortic plaque area quantitation (Sudan IV staining of aortic arch); assay type: in vivo, mouse
From the text: C57bl6 mice, AGER knockout (KO) mice, apoE KO mice, AGER/apoE double knockout (DKO), Ace2/apoE DKO and AGER/Ace2/apoE triple knockout (TKO) mice were sourced and generated in-house at the AMPREP animal house. All mice were bred on a C57bl6 background. For experimental studies, male mice aged 6-8 weeks and weighing between 20-25 g were used, with at least 8 animals per group for in vivo studies and n=6/group for ex vivo studies. Throughout the study animals were given access to mouse chow and water ad libitum. All experiments were approved by the animal ethics committee of the Alfred Medical Research Precinct and conducted in accordance with the Guide for the Care and Use of Laboratory Animals published by the US National Institutes of Health (NIH Publication No. 85-23, revised 1996).
Aortic Plaque Area Quantitation Method
Aortic arches were removed from mice, cleaned of excess fat, placed in 10% neutral buffered formalin and subsequently stained with Sudan IV-Herxheimer's solution (0.5% w/vol; Gurr, BDH Limited, Poole, UK). Aortae were then dissected longitudinally, and pinned flat onto a wax pad. Plaque accumulation across the aortic arch was quantitated as the percentage area stained red.
Angiotensin Infusion Model […]

isolated aortae = assay: Ex vivo exposure of isolated aortae to Ang II, expression of pro-atherogenic mediators by RT-PCR; parameters: species or system mouse; settings: 1 μM
Method: as §1
(§2) Ex Vivo Studies in Isolated Aortae
(§3) Aortae were isolated from apoE KO and AGER/apoE DKO mice, divided and placed in Krebs buffer and maintained at physiological pH by infusing carbogen gas (95% O2; 5% CO2) through the buffer at 37° C. Vessels (n=6/group) were then treated with Ang II (1 μM) for 4 hours. After which time, whole blood labelled with DilC18 (1:1000) was then perfused through the aorta at 0.12 ml/min. Images and videos of vessel wall-cell interactions were observed using a fluorescence microscope (Zeiss Discovery.V20), coupled to a digital camera ([…] ORCA-ER) and analysed with AxioVison software.

aortic endothelium = assay: Adherence of labelled leukocytes to aortae (dynamic flow assay); parameters: species or system mouse; settings: ex vivo
Method: Adherence of Labelled Leukocytes to Aortae
After 1 week of a low sodium or normal sodium diet, apoE KO and AGER/apoE DKO animals were humanely killed and aortae were isolated, cleaned of fat and mounted in a vessel chamber primed with Krebs buffer and maintained at physiological pH by infusing carbogen gas (95% O2; 5% CO2) through the buffer at 37° C., as previously described. Whole blood labelled with DilC18 (1:1000) was then perfused through the aorta at 0.12 ml/min. As a positive control, vessels (n=6/group) were pre-treated with TNFα (4 ng/ml) for 4 hrs at 37° C. or Ang II (1 μM). Images and videos of vessel wall-cell interactions were acquired using a fluorescence microscope (Zeiss Discovery.V20), coupled to a digital camera ([…] ORCA-ER) and analysed with AxioVison software. Two to three frames were taken at each time point and the number of adherent cells per frame recorded.
as §2
as §3, with “After which time, whole blood labelled with DilC18 (1:1000) was then perfused through the aorta at 0.12 ml/min.” left out

T1 sequence (A0A8C2MPD4 1-1657): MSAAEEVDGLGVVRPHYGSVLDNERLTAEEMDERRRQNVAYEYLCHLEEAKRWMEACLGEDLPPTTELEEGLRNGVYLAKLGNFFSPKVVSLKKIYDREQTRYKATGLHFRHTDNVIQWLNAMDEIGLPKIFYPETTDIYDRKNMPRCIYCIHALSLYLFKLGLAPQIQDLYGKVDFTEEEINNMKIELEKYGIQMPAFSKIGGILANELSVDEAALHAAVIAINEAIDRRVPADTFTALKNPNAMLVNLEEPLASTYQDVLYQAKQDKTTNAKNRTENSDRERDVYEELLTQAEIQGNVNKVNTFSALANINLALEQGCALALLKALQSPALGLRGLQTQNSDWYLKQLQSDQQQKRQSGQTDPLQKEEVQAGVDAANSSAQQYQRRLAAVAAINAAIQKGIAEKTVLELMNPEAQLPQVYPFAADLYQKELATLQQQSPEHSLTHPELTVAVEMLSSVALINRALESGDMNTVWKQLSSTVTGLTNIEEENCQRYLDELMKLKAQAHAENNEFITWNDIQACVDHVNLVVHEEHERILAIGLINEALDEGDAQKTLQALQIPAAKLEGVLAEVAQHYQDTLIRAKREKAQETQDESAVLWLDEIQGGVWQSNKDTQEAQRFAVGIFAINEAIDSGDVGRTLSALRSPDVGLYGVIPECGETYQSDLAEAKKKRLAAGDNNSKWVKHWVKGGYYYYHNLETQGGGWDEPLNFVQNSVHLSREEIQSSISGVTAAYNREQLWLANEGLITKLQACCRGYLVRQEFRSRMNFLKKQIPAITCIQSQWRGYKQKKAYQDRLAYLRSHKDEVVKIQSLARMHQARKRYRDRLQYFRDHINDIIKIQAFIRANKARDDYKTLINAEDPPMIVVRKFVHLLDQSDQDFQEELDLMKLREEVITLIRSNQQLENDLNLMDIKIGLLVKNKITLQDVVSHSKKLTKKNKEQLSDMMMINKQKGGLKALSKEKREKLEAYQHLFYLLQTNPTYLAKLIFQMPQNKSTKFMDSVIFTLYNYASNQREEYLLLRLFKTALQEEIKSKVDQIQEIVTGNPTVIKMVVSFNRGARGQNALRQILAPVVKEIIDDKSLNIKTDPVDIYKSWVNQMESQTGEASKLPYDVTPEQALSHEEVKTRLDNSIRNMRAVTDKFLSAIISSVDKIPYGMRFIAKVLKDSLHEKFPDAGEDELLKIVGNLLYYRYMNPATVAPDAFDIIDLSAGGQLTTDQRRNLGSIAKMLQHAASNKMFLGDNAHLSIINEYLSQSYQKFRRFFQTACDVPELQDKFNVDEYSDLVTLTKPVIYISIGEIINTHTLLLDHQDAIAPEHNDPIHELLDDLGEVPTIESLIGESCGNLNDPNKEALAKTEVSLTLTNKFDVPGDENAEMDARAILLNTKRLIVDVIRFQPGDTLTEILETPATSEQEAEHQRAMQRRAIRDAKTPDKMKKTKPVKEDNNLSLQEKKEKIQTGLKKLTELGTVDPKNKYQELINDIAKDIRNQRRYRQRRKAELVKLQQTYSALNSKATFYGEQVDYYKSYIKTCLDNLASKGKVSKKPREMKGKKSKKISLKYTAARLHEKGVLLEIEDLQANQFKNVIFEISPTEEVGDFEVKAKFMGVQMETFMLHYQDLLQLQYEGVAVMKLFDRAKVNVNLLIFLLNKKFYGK

In the case of “L362WQRRQRRGEERKAPENQEEEEERAELNQAEEPEAGESSTGGP404 (LWQRRQRRGEERKAPENQEEEEERAELNQAEEPEAGESSTGGP; listed as Homo sapiens) [S391A-RAGE362-404, S391A mutant RAGE cytosolic tail; non-functional substitute for RAGE]”, the “pull down of IQGAP-1 (and ezrin/radixin/moesin, olfactory receptor 2T2) from cytosolic components” value (IQGAP-1) was “Pull down”.
In the case of “angiotensin II (DRVYIHPF) [Ang II, cognate ligand of AT1R]”, the “aortic expression of pro-atherogenic mediators” value (apoE KO mice [1]; AGER/apoE DKO mice) was “preventing”, the “aortic expression of genes coding for pro-atherogenic mediators” value (apoE KO mice [1]; apoE KO mice) was “increases” and the systolic blood pressure [2] was “increased to a similar extent”. For the same substance, the “atherogenesis (plaque area)” value (apoE KO mice [3]; AGER/apoE DKO mice, four-week infusion 1 μg/kg/min) was “prevents the increase in atherogenesis”, the “atherogenesis (percentage of the aortic arch surface area staining positive to Sudan IV)” value (apoE KO mice [3]; apoE KO mice, four-week infusion 1 μg/kg/min vs untreated) was “increases atherogenesis” and the “induction of atherogenic mediators” value (isolated aortae; aortae from AGER/apoE DKO mice) was “prevents”. The “expression of pro-atherogenic mediators” value (isolated aortae; isolated aortae from apoE KO mice) was “increases”, the “endothelial adhesiveness of primed leucocytes” value (aortic endothelium; aortae from AGER/apoE DKO mice, 1 μM) was “prevents” and the “number of adherent leukocytes” value (aortic endothelium; aortae from apoE KO mice, 1 μM vs untreated) was “increased number of adherent leukocytes”.
